# Experimental data taken from paper PMC11078746 (Nature, 2024).
# Where “and” joins values, the source holds several entries; their conditions need not be identical. Equal entries are not always repeated.
# Test system: SW48 xenografts
# Assay: SW48 cell-derived xenograft efficacy, HRO761 orally once daily
# Type: in vivo, mouse
# Method: All animal studies were conducted in accordance with ethics and procedures covered by permit BS-2275 and BS-1975 issued by the Kantonales Veterinäramt Basel-Stadt and in strict adherence to guidelines of the Eidgenössisches Tierschutzgesetz and the Eidgenössische Tierschutzverordnung, Switzerland. All animal studies were approved by the internal ethics committee. All animals had access to food and water ad libitum and were identified with transponders. They were housed in a specific-pathogen-free facility in IVC racks under a 12 h–12 h light–dark cycle. To establish cell-line-derived xenograft models, 6–7-week-old female athymic nude (Crl:NU(NCr)-Foxn1^nu) or SCID-BEIGE (CB17.Cg-PrkdcscidLystbg-J/Crl) mice from Charles River were engrafted subcutaneously with 5 million tumour cells in HBSS (H6648, Sigma-Aldrich). For SNU-407, Lovo, IM95, RL95.2, Ishikawa and IGROV-1, the cells were concentrated in 50% Matrigel (354234, Corning). Patient-derived xenografts were induced and expanded by transplantation as previously described. […] For the efficacy experiment, mice were randomized into groups (n = 5–6) for a mean tumour size of 100–150 mm^3. […] Blood samples were collected on day 7 and 91. […] Tumour responses are reported with the measures of tumour volumes from the treatment start. […] Animals were randomized (n = 3) and tumour samples were collected at 0, 1, 4, 8 and 24 h on the first day and then collected 4 h after the last treatment on day 3, 8, 10, 14 (including a 24 h timepoint), 17 and 21. Tumours were excised, weighed, either frozen in liquid nitrogen and cryogenic dry pulverized with the CryoPrep system (model CP-02, Covaris) or processed to FFPE after fixation. […] On day 12, blood samples were collected for PK analysis. On the last day (3 h after the last treatment), tumours were excised, weighed, frozen in liquid nitrogen and cryogenic dry pulverized for PD analysis.
smiles,measurement,setting,value
CCc1c(N2CCN(C(=O)c3ncnc(C)c3O)CC2)c(=O)n2nc(C3=CCOCC3)nc2n1CC(=O)Nc1ccc(C(F)(F)F)cc1Cl [HRO761],Mean TVol,"HRO761 60mg/kg, day 14 post 1st dose",143.74 mm3
same,"TVol, individual mouse","HRO761 60mg/kg, day 14 post 1st dose, 60 mg/kg",168.86 mm3 and 112.65 mm3 and 68.51 mm3 and 225.46 mm3 and 143.2 mm3
same,Mean TVol,"HRO761 60mg/kg, day 17 post 1st dose",92.17 mm3
same,"TVol, individual mouse","HRO761 60mg/kg, day 17 post 1st dose, 60 mg/kg",122.04 mm3 and 68.7 mm3 and 47.51 mm3 and 127.77 mm3 and 94.82 mm3
same,Mean TVol,"HRO761 60mg/kg, day 21 post 1st dose",94.01 mm3
same,"TVol, individual mouse","HRO761 60mg/kg, day 21 post 1st dose, 60 mg/kg",102.4 mm3 and 77.05 mm3 and 73.43 mm3 and 131.39 mm3 and 85.79 mm3
same,Mean TVol,"HRO761 60mg/kg, day 24 post 1st dose",58.88 mm3
same,"TVol, individual mouse","HRO761 60mg/kg, day 24 post 1st dose, 60 mg/kg",71.44 mm3 and 52.46 mm3 and 38.57 mm3 and 82.39 mm3 and 49.52 mm3
same,Mean TVol,"HRO761 60mg/kg, day 28 post 1st dose",51.50 mm3
same,"TVol, individual mouse","HRO761 60mg/kg, day 28 post 1st dose, 60 mg/kg",56.2 mm3 and 60.49 mm3 and 22.48 mm3 and 76.24 mm3 and 42.11 mm3
same,Mean TVol,"HRO761 60mg/kg, day 31 post 1st dose",37.85 mm3
same,Mean TVol,"HRO761 60mg/kg, day 35 post 1st dose",35.63 mm3
same,Mean TVol,"HRO761 60mg/kg, day 38 post 1st dose",32.12 mm3
same,Mean TVol,"HRO761 60mg/kg, day 42 post 1st dose",26.69 mm3
same,Mean TVol,"HRO761 60mg/kg, day 45 post 1st dose",28.41 mm3
same,Mean TVol,"HRO761 60mg/kg, day 49 post 1st dose",28.59 mm3
same,Mean TVol,"HRO761 60mg/kg, day 52 post 1st dose",39.66 mm3
same,Mean TVol,"HRO761 60mg/kg, day 56 post 1st dose",41.29 mm3
same,Mean TVol,"HRO761 60mg/kg, day 59 post 1st dose",58.21 mm3
same,Mean TVol,"HRO761 60mg/kg, day 63 post 1st dose",63.07 mm3
same,Mean TVol,"HRO761 60mg/kg, day 66 post 1st dose",73.43 mm3
same,Mean TVol,"HRO761 60mg/kg, day 70 post 1st dose",92.32 mm3
same,Mean TVol,"HRO761 60mg/kg, day 73 post 1st dose",100.10 mm3
same,Mean TVol,"HRO761 60mg/kg, day 76 post 1st dose",118.12 mm3
same,Mean TVol,"HRO761 60mg/kg, day 79 post 1st dose",144.54 mm3
same,Mean TVol,"HRO761 60mg/kg, day 83 post 1st dose",167.90 mm3
same,Mean TVol,"HRO761 60mg/kg, day 86 post 1st dose",197.43 mm3
same,Mean TVol,"HRO761 60mg/kg, day 90 post 1st dose",250.29 mm3
same,Mean TVol,"HRO761 60mg/kg, day 92 post 1st dose",257.93 mm3
same,Mean TVol,"HRO761 120mg/kg, day 0 post 1st dose",148.61 mm3
same,Mean TVol,"HRO761 120mg/kg, day 3 post 1st dose",165.08 mm3
same,Mean TVol,"HRO761 120mg/kg, day 7 post 1st dose",155.01 mm3
same,Mean TVol,"HRO761 120mg/kg, day 10 post 1st dose",143.90 mm3
same,Mean TVol,"HRO761 120mg/kg, day 14 post 1st dose",109.57 mm3
same,"TVol, individual mouse","HRO761 120mg/kg, day 14 post 1st dose, 120 mg/kg",89.55 mm3 and 116.21 mm3 and 96.68 mm3 and 110.56 mm3 and 134.85 mm3
same,Mean TVol,"HRO761 120mg/kg, day 17 post 1st dose",76.89 mm3
same,"TVol, individual mouse","HRO761 120mg/kg, day 17 post 1st dose, 120 mg/kg",65.99 mm3 and 76.61 mm3 and 69.65 mm3 and 76.31 mm3 and 95.9 mm3
same,Mean TVol,"HRO761 120mg/kg, day 21 post 1st dose",60.65 mm3
same,"TVol, individual mouse","HRO761 120mg/kg, day 21 post 1st dose, 120 mg/kg",36.03 mm3 and 67.66 mm3 and 49.83 mm3 and 57.7 mm3 and 92.01 mm3
same,Mean TVol,"HRO761 120mg/kg, day 24 post 1st dose",40.88 mm3
same,"TVol, individual mouse","HRO761 120mg/kg, day 24 post 1st dose, 120 mg/kg",38.27 mm3 and 45.09 mm3 and 38.11 mm3 and 31.94 mm3 and 50.97 mm3
same,Mean TVol,"HRO761 120mg/kg, day 28 post 1st dose",35.35 mm3
same,"TVol, individual mouse","HRO761 120mg/kg, day 28 post 1st dose, 120 mg/kg",32.65 mm3 and 37.62 mm3 and 34.55 mm3 and 23.01 mm3 and 48.93 mm3
same,Mean TVol,"HRO761 120mg/kg, day 31 post 1st dose",23.02 mm3
same,Mean TVol,"HRO761 120mg/kg, day 35 post 1st dose",18.60 mm3
same,Mean TVol,"HRO761 120mg/kg, day 38 post 1st dose",15.04 mm3
same,Mean TVol,"HRO761 120mg/kg, day 42 post 1st dose",15.24 mm3
same,Mean TVol,"HRO761 120mg/kg, day 45 post 1st dose",22.14 mm3
same,Mean TVol,"HRO761 120mg/kg, day 49 post 1st dose",17.54 mm3
same,Mean TVol,"HRO761 120mg/kg, day 52 post 1st dose",14.62 mm3
same,Mean TVol,"HRO761 120mg/kg, day 56 post 1st dose",23.36 mm3
same,Mean TVol,"HRO761 120mg/kg, day 59 post 1st dose",24.12 mm3
same,Mean TVol,"HRO761 120mg/kg, day 63 post 1st dose",25.71 mm3
same,Mean TVol,"HRO761 120mg/kg, day 66 post 1st dose",34.04 mm3
same,Mean TVol,"HRO761 120mg/kg, day 70 post 1st dose",39.42 mm3
same,Mean TVol,"HRO761 120mg/kg, day 73 post 1st dose",45.77 mm3
same,Mean TVol,"HRO761 120mg/kg, day 76 post 1st dose",45.68 mm3
same,Mean TVol,"HRO761 120mg/kg, day 79 post 1st dose",54.31 mm3
same,Mean TVol,"HRO761 120mg/kg, day 83 post 1st dose",66.91 mm3
same,Mean TVol,"HRO761 120mg/kg, day 86 post 1st dose",85.46 mm3
same,Mean TVol,"HRO761 120mg/kg, day 90 post 1st dose",91.43 mm3
same,Mean TVol,"HRO761 120mg/kg, day 92 post 1st dose",94.97 mm3
same,Best average response,"SW48, colorectal carcinoma, 60 or 120 mg/kg",-90
same,tumour regressions,"higher doses than 20 mg per kg, once daily oral, up to 60 days",75–90%
